Measured values reported in patent publication US4670469A, “Hydroxamic acid and pharmaceutical preparations containing the same” (VEB Arzneimittelwerk Dresden, priority 1983, dated 1987).
Several values for one entry are separate records, joined by “and”; a condition that tells them apart may be missing. Equal entries are not always repeated.

How the values were obtained:
[1] = test system: histamine-induced bronchoconstriction in guinea pigs; assay: Inhibition of histamine-induced bronchoconstriction in guinea pigs in vivo
Experimental: Accordingly, this complete animal model is called upon for further experimental determination of the anti-asthmatic activity of compounds of Formula I. The following describes a representative experiment with salicylhydroxamic acid (SHAM) in […] male guinea pigs. SHAM is applied in a dose of 95 mg/kg body weight; this dose lies a power of ten below the determined values for acute toxicity (LD50 -value).
After urethane narcosis, a flexible catheter is introduced into the V. jugularis dext. of each animal. After a tracheotomy a tracheotubular needle is inserted for respiration. Then, after muscle relaxation with Pavulon, mechanical respiration follows in a Body-Plethysmograph (16 min^-1, I/E=1/1, pI =20 cmH2 O; Muller et al., 1976; Oddoy et al., 1982).
Over a tubular flesh needle at the outwardly led tracheotubular needle, the breath volume per draw of breath is measured by means of a pneumotachograph. The values are separately integrated and registered with a light recorder.
After 3 minutes calm breathing with registration of the parameter, three animals are dosed each with 2.5 ml SHAM-solution (isotonic, 37° C., 0.1M), i.v. (SHAM was dissolved in water directly before the test by heating, and the solution was cooled quickly in an 37° C. water bath.)
After 5 minutes further observation there follows the delivery of 5 μg/kg KM Histamine i.v. for providing a submaximal bronchospasm. After a further 5 minutes, 50 μg/kg KM Histamine are injected i.v. This leads according to experience to a fast, complete bronchial spasm ("silent chest"). After registration of the breath volume over a further 5 minutes, the test is completed.
In 3 animals serving as control group, with otherwise analogous procedure, instead of SHAM, 2.5 ml isotonic NaCl-solution are applied.
The calm- and the 5-minute values are mean values (in cm amplitude) from each 5 draws of breath.
The values after the Histamine injections represent the draw of breath having the smallest volume (3rd to 5th draw of breath after injection).

[2] = target: T1, arachidonate-lipoxygenase of human thrombocyte (Homo sapiens, UniProt P18054); assay: Arachidonate-lipoxygenase activity of microsome-free lysate of human thrombocyte concentrates; format: biochemical; conditions: 0.25 mM
T1 construct: microsome-free lysate of human thrombocyte concentrates; from tissue; host or cells: human thrombocyte (platelet) concentrates, microsome-free lysate
Experimental: The inhibition of thrombocyte aggregation is likewise ascribed to the inhibition of lipoxygenase in the cells. It has thus been shown that the arachidonate-lipoxygenase activity of a microsome-free lysate of human thrombocyte concentrates is inhibited to the extent of 100% by means of 0.25 mM salicylhydroxamic acid. Moreover, it has been shown that also a series of further lipoxygenases are inhibited by means of the here described hydroxamic acids. The lipoxygenase from soybeans reacts the most insensitive, i.e. it is inhibited by means of 1 mM salicylhydroxamic acid at pH 7.4 to an extent of 60% and by means of 0.4 mM 2-hydroxy-1-napthylhydroxamic acid to an extent of 54%. In contrast, for the lipoxygenase from peas which come closer in their characteristics to human lipoxygenase, the following I50 -values are provided: salicyl hydroxamic acid, 5 μM, 2-hydroxy-1-napthylhydroxamic acid, 2 μM, 2(2'-napthoxy)-acethydroxamic acid, 2 μM. Moreover it has been shown that the formation lipoxygenase products of arachidonic acid in in vitro cultivated aorta endothelial cells of calves is hindered through 0.1 mM 2-hydroxy-1-napthylhydroxamic acids.

[3] = individual animals, draw of breath having the smallest volume, listed as SHAM
[4] = individual animals, listed as SHAM

T1 sequence (P18054 whole entry): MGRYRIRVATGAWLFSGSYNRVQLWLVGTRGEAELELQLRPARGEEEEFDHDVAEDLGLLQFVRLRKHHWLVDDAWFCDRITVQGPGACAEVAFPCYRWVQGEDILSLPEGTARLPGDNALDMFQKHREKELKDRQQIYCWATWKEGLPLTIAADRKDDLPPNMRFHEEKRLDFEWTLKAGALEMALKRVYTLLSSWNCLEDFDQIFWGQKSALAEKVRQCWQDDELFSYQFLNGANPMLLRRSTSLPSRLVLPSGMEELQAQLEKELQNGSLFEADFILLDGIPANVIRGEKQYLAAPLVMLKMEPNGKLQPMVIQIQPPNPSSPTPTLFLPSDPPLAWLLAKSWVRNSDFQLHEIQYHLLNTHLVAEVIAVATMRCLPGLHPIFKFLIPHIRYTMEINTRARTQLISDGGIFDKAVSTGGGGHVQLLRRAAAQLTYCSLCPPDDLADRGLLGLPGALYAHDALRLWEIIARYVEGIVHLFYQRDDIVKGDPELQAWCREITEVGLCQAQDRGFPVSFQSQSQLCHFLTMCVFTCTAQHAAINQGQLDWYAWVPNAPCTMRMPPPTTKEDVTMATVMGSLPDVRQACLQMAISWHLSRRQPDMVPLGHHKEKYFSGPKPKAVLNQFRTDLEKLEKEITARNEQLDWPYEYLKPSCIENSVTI

O=C(NO)c1ccccc1O [salicylhydroxamic acid]
volume change, after 5 min ([1]; average value for n = 3, 5 min after first histamine injection): +7% | volume change, after 5 min ([1]; average value for n = 3, 5 min after second histamine injection): -20% | volume change, after 5 min ([1]; average value for n = 3, after SHAM i.v.): +7.7% | volume change, after 5 μg/kg Histamine ([1]; average value for n = 3, first histamine injection): -18% | volume change, after 5 μg/kg Histamine ([1]; average value for n = 3, second histamine injection): -68.9% | breath volume after i.v. injection ([1]; before histamine): insignificant rise | V-5 min after SHAM (breath volume change) ([1]; individual animals, 2.5 ml 0.1M SHAM i.v., cm amplitude): +0.1 cm and +0.2 cm and +0.45 cm | volume change, after 5 min ([1]; individual animals, 5 min after first histamine injection, listed as SHAM): +5% and +10% and +7.2% | volume change, after 5 min ([1]; individual animals, 5 min after second histamine injection, listed as SHAM): -04% and -22% and -35% | V after 5 μg Hist. i.v. [1, 3]: -0.4 cm and -2.2 cm | V after 50 μg Hist. i.v. [1, 3]: -2.4 cm and -4.4 cm and -1.6 cm | volume change, after 5 μg/kg Histamine ([1]; individual animals, first histamine injection, listed as SHAM): -8% and -48% and 0% | V-5 min thereafter (after 5 μg Hist.) [1, 4]: +0.26 cm and +0.48 cm and +0.19 cm | V-5 min thereafter (after 50 μg Hist.) [1, 4]: -0.2 cm and -1.0 cm and -0.9 cm | volume change, after 5 min ([1]; individual animals, percent of the starting draw volume, after SHAM i.v.): +2% and +4% and +17% | bronchial spasm after histamine injections ([1]; pre-treated animals versus control group): smaller bronchial spasm than the animals of the control group | spontaneous regression of histamine induced bronchial spasm ([1]; treated animals versus control group): more quickly and more extensively than in the control group | inhibition at 250 µM [2]: 100%
